From patent publication US9676754B2, “Triazolone compounds and uses thereof” (Inception 2, Inc., priority 2012, dated 2017) come the findings set out here.

The structures appear in SMILES notation.

The target of the assay is T1, Human PPARα (Homo sapiens, UniProt Q07869).
T1 construct: host or cells: proprietary non-human mammalian cells
T1 sequence (Q07869 1-468): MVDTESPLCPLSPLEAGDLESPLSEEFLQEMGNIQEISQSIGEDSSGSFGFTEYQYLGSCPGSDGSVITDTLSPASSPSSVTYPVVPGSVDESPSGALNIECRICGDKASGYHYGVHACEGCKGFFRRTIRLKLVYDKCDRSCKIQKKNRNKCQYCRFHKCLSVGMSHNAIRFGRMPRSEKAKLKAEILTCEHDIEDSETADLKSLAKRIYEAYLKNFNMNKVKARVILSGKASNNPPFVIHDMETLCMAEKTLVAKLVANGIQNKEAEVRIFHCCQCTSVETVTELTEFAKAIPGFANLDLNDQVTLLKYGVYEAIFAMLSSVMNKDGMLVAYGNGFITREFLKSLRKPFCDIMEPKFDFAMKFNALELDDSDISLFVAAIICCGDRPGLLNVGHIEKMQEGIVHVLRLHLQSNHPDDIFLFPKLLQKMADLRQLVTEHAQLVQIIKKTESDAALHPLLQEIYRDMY
The assay can be described thus: Human PPARα Reporter Assay (luciferase). Conditions: antagonist activity, luciferase reporter cells, overnight incubation; read-out: Human PPARα Reporter Assay-Luciferase IC50. The assay is classed as cell-based. As to the method:
Human PPARα Reporter Assay
The screening of test compounds for agonist or antagonist activities against human PPARα receptors was performed using a commercial kit, Human PPARα Reporter Assay System (Indigo Biosciences, Cat. #IB00111).
This nuclear receptor assay system utilizes proprietary non-human mammalian cells engineered to provide constitutive, high-level expression of Human PPARα. Because these cells incorporate a PPARα-responsive luciferase reporter gene, quantifying expressed luciferase activity provides a sensitive surrogate measure of PPARα activity in the treated cells. The primary application of this reporter assay system is in the screening of test samples to quantify any functional activity, either agonist or antagonist, that they may exert against human PPARα. […] Briefly, the reporter cells are dispensed into wells of the assay plate and then immediately dosed with test compounds. Following an overnight incubation, the treatment media are discarded and Luciferase Detection Reagent (LDR) is added. The intensity of light emission from the ensuing luciferase reaction provides a sensitive measure that is directly proportional to the relative level of PPARα activation in the reporter cells.
A general note: Reporter assays use an easily measured gene product as a stand-in for the process of interest.
As for `CCn1c(CCCc2cccc(-c3cccc(CC(=O)O)c3)c2)nn(Cc2ccc(C(C)(C)C)cc2)c1=O` [Example 1, 2-(3′-(3-(1-(4-(tert-Butyl)benzyl)-4-ethyl-5-oxo-4,5-dihydro-1H-1,2,4-triazol-3-yl)propyl)-[1,1′-biphenyl]-3-yl)acetic acid], the IC50 (commonly the concentration needed to halve the response being measured) stood at 346 nM.

As for `CCn1c(CCCc2cccc(-c3ccc(CC(=O)O)cc3)c2)nn(Cc2ccc(C(C)(C)C)cc2)c1=O` [Example 2, 2-(3′-(3-(1-(4-(tert-Butyl)benzyl)-4-ethyl-5-oxo-4,5-dihydro-1H-1,2,4-triazol-3-yl)propyl)-[1,1′-biphenyl]-4-yl)acetic acid], the IC50 came out at 324 nM.

In the case of `CCn1c(CCCc2cccc(-c3cccc(C(=O)O)c3)c2)nn(Cc2ccc(C(C)(C)C)cc2)c1=O` [Example 3, 3′-(3-(1-(4-(tert-Butyl)benzyl)-4-ethyl-5-oxo-4,5-dihydro-1H-1,2,4-triazol-3-yl)propyl)-[1,1′-biphenyl]-3-carboxylic acid], the IC50 amounted to 1330 nM.

Consider `CCn1c(CCCc2cccc(-c3ccc(C(=O)O)cc3)c2)nn(Cc2ccc(C(C)(C)C)cc2)c1=O` [Example 4, 3′-(3-(1-(4-(tert-Butyl)benzyl)-4-ethyl-5-oxo-4,5-dihydro-1H-1,2,4-triazol-3-yl)propyl)-[1,1′-biphenyl]-4-carboxylic acid], for which the IC50 is 110 nM.

Consider `CCOc1ccc(-c2cccc(CCCc3nn(Cc4ccc(C(C)(C)C)cc4)c(=O)n3CC)c2)cc1C1(C(=O)O)CC1` [Example 5, 1-(3′-(3-(1-(4-(tert-Butyl)benzyl)-4-ethyl-5-oxo-4,5-dihydro-1H-1,2,4-triazol-3-yl)propyl)-4-ethoxy-[1,1′-biphenyl]-3-yl)cyclopropanecarboxylic acid], for which the IC50 was determined as 137 nM.

Turning to `CCn1c(CCCc2cccc(-c3cccc(C4(C(=O)O)CC4)c3)c2)nn(Cc2ccc(C(C)(C)C)cc2)c1=O` [Example 7, 1-(3′-(3-(1-(4-(tert-Butyl)benzyl)-4-ethyl-5-oxo-4,5-dihydro-1H-1,2,4-triazol-3-yl)propyl)-[1,1′-biphenyl]-3-yl)cyclopropanecarboxylic acid], the IC50 was 77 nM.

`CCn1c(CCCc2cccc(-c3ccc(C4(C(=O)O)CC4)cc3)c2)nn(Cc2ccc(C(C)(C)C)cc2)c1=O` [Example 8, 1-(3′-(3-(1-(4-(tert-Butyl)benzyl)-4-ethyl-5-oxo-4,5-dihydro-1H-1,2,4-triazol-3-yl)propyl)-[1,1′-biphenyl]-4-yl)cyclopropanecarboxylic acid]: the IC50 worked out at 487 nM.

Regarding `CCn1c(CCCc2cccc(-c3ccc(OC)c(C(=O)O)c3)c2)nn(Cc2ccc(C(C)(C)C)cc2)c1=O` [Example 9, 3′-(3-(1-(4-(tert-Butyl)benzyl)-4-ethyl-5-oxo-4,5-dihydro-1H-1,2,4-triazol-3-yl)propyl)-4-methoxy-[1,1′-biphenyl]-3-carboxylic acid], the half-inhibitory concentration (IC50) was found to be 548 nM.

Consider `CCOc1ccc(-c2cccc(CCCc3nn(Cc4ccc(C(C)(C)C)cc4)c(=O)n3CC)c2)cc1C(=O)O` [Example 10, 3′-(3-(1-(4-(tert-Butyl)benzyl)-4-ethyl-5-oxo-4,5-dihydro-1H-1,2,4-triazol-3-yl)propyl)-4-ethoxy-[1,1′-biphenyl]-3-carboxylic acid], for which the IC50 was determined as 211 nM.

Regarding `CCCOc1ccc(-c2cccc(CCCc3nn(Cc4ccc(C(C)(C)C)cc4)c(=O)n3CC)c2)cc1CC(=O)O` [Example 11, 2-(3′-(3-(1-(4-(tert-Butyl)benzyl)-4-ethyl-5-oxo-4,5-dihydro-1H-1,2,4-triazol-3-yl)propyl)-4-propoxy-[1,1′-biphenyl]-3-yl)acetic acid], the IC50 turned out to be 48 nM.

Regarding `CCn1c(CCCc2cccc(-c3ccc(NS(=O)(=O)c4ccccc4)cn3)c2)nn(Cc2ccc(C(C)(C)C)cc2)c1=O` [Example 12, N-(6-(3-(3-(1-(4-(tert-Butyl)benzyl)-4-ethyl-5-oxo-4,5-dihydro-1H-1,2,4-triazol-3-yl)propyl)phenyl)pyridin-3-yl)benzenesulfonamide], the IC50 was found to be 302 nM.

Turning to `CCn1c(CCCc2cccc(-c3ccc(OC)c(CC(=O)O)c3)c2)nn(Cc2ccc(C(C)(C)C)cc2)c1=O` [Example 13, 2-(3′-(3-(1-(4-(tert-Butyl)benzyl)-4-ethyl-5-oxo-4,5-dihydro-1H-1,2,4-triazol-3-yl)propyl)-4-methoxy-[1,1′-biphenyl]-3-yl)acetic acid], the half-maximal inhibitory concentration (IC50) was 197 nM.

Take `CCn1c(CCCc2cccc(-c3ccc(C)c(C4(C(=O)O)CC4)c3)c2)nn(Cc2ccc(C(C)(C)C)cc2)c1=O` [Example 14, 1-(3′-(3-(1-(4-(tert-Butyl)benzyl)-4-ethyl-5-oxo-4,5-dihydro-1H-1,2,4-triazol-3-yl)propyl)-4-methyl-[1,1′-biphenyl]-3-yl)cyclopropanecarboxylic acid]: the half-maximal inhibitory concentration (IC50) stood at 234 nM.

Regarding `CCn1c(CCCc2cccc(-c3ccc(OCc4ccccc4)c(CC(=O)O)c3)c2)nn(Cc2ccc(C(C)(C)C)cc2)c1=O` [Example 15, 2-(4-(Benzyloxy)-3′-(3-(1-(4-(tert-butyl)benzyl)-4-ethyl-5-oxo-4,5-dihydro-1H-1,2,4-triazol-3-yl)propyl)-[1,1′-biphenyl]-3-yl)acetic acid], the half-inhibitory concentration (IC50) came to 122 nM.

As for `CCn1c(CCCc2cccc(-c3ccc(OCC4CC4)c(CC(=O)O)c3)c2)nn(Cc2ccc(C(C)(C)C)cc2)c1=O` [Example 16, 2-(3′-(3-(1-(4-(tert-Butyl)benzyl)-4-ethyl-5-oxo-4,5-dihydro-1H-1,2,4-triazol-3-yl)propyl)-4-(cyclopropylmethoxy)-[1,1′-biphenyl]-3-yl)acetic acid], the IC50 worked out at 141 nM.

As to `CCn1c(CCCc2cccc(-c3ccc(F)c(CC(=O)O)c3)c2)nn(Cc2ccc(C(C)(C)C)cc2)c1=O` [Example 17, 2-(3′-(3-(1-(4-(tert-Butyl)benzyl)-4-ethyl-5-oxo-4,5-dihydro-1H-1,2,4-triazol-3-yl)propyl)-4-fluoro-[1,1′-biphenyl]-3-yl)acetic acid], the IC50 is 83 nM.

Take `CCOc1ccc(CC(=O)O)cc1-c1cccc(CCCc2nn(Cc3ccc(C(C)(C)C)cc3)c(=O)n2CC)c1` [Example 18, 2-(3′-(3-(1-(4-(tert-Butyl)benzyl)-4-ethyl-5-oxo-4,5-dihydro-1H-1,2,4-triazol-3-yl)propyl)-6-ethoxy-[1,1′-biphenyl]-3-yl)acetic acid]: the IC50 worked out at 750 nM.

As for `CCCOc1ccc(-c2cccc(CCCc3nn(Cc4ccc(C(C)(C)C)cc4)c(=O)n3CC)c2)cc1C(=O)O` [Example 19, 3′-(3-(1-(4-(tert-Butyl)benzyl)-4-ethyl-5-oxo-4,5-dihydro-1H-1,2,4-triazol-3-yl)propyl)-4-propoxy-[1,1′-biphenyl]-3-carboxylic acid], the IC50 was 119 nM.

`CCn1c(CCCc2cccc(-c3cccc(CNS(=O)(=O)c4ccccc4)c3)c2)nn(Cc2ccc(C(C)(C)C)cc2)c1=O` [Example 20, N-((3′-(3-(1-(4-(tert-Butyl)benzyl)-4-ethyl-5-oxo-4,5-dihydro-1H-1,2,4-triazol-3-yl)propyl)-[1,1′-biphenyl]-3-yl)methyl)benzenesulfonamide]: the IC50 was found to be 896 nM.

Turning to `CCn1c(CCCc2cccc(-c3ccc(OC)c(CCC(=O)O)c3)c2)nn(Cc2ccc(C(C)(C)C)cc2)c1=O` [Example 21, 3-(3′-(3-(1-(4-(tert-Butyl)benzyl)-4-ethyl-5-oxo-4,5-dihydro-1H-1,2,4-triazol-3-yl)propyl)-4-methoxy-[1,1′-biphenyl]-3-yl)propanoic acid], the 50% inhibitory concentration (IC50) came to 610 nM.
